Source: patent US5686637A, “Antifungal agent” (Merck & Co., Inc., priority 1995, dated 1997)
≈ marks a conversion by molar mass, not a printed value.

Tests used:
[1] = system: Aspergillus fumigatus (MF 4839); assay: microbroth dilution assay (MIC), Aspergillus fumigatus (MF 4839); assay type: cell-based; conditions: Aspergillus fumigatus, 24 h, read-out: Minimum Inhibitory Concentration (MIC)
Protocol: (§1) In the microbroth dilution assay, microorganisms were selected by streaking a yeast culture on Sabouraud dextrose agar (SDA) incubating for 24-48 hours at 35°-37° C., thereafter selected 3 to 5 characteristic colonies and transferring to a fresh plate and incubating under similar conditions. From the regrowth, 3 to 5 colonies were selected and suspended in. 10 milliliters of YM broth (Dffco) and incubated for 4 hours at 35°-37° C. shaking at 225 rpm. The 4 hour broth cultures were adjusted optically to 86% transmission resulting in a concentration of 1-5×10^6 cfu/ml which was further diluted 1:100 in YNBD (yeast nitrogen base with 1% dextrose) to obtain a concentration of 1-5×10^4 cfu/ml for use as inocula.
(§2) The test compound, Compound I, was prepared as a stock solution of 128 μg/ml in 20% methanol and 75 μl of said solution delivered to each well in column 1 of a 96-well, U-bottomed microtiter plate. The compounds in column 1 were then serially diluted two-fold to yield concentrations from 32 μg/ml to 0.15 μg/ml. […]
(§3) After recording MICs at 24 hours, the microtiter plates were shaken gently to resuspend the cells. […] For Cryptococus neoformans, SDA plates were inoculated at 48 hours after recording MICs and incubated 48 hours before reading the MFC. […]

[2] = system: C. parapsilosis (MY 1010); assay: microbroth dilution assay (MIC/MFC), C. parapsilosis (MY 1010); assay type: cell-based; conditions: Lodderomyces parapsilosis, 24 h
Protocol: as §1
(§4) The test compound, Compound I, was prepared as a stock solution of 128 μg/ml in 20% methanol and 75 μl of said solution delivered to each well in column 1 of a 96-well, U-bottomed microtiter plate. The compounds in column 1 were then serially diluted two-fold to yield concentrations from 32 μg/ml to 0.15 μg/ml.
as §4, with “Amphotericin, the control” for “The test”, “compound,” for “compound, Compound I,”, “512” for “128”, “10% DMSO” for “20% methanol”, “128” for “32”, “0.6” for “0.15”
(§5) The plates containing the diluted compounds were then inoculated with 75 μl/well of the appropriate microorganism and incubated for 48 hours at 35°-37° C. with MIC (minimum inhibitory concentration) determinations carried out after 24 hours of incubation. Growth and sterility controls for each organism and sterility checks for the compounds also were carded out.
(§6) After recording MICs at 24 hours, the microtiter plates were shaken gently to resuspend the cells. A 1.5 μl sample was transferred from each well of the 96-well microtiter plate to a single reservoir inoculum plate containing SDA. The inoculated SDA and corresponding microtiter plates were incubated for 24 hours at 35°-37° C. For Cryptococus neoformans, SDA plates were inoculated at 48 hours after recording MICs and incubated 48 hours before reading the MFC. MFC is the lowest concentration of compound at which either no growth or growth of ≤4 colonies occur.

A. fumigatus (5668) = assay: microbroth dilution assay (MIC), A. fumigatus (5668); assay type: cell-based; conditions: Aspergillus fumigatus, 24 h, read-out: Minimum Inhibitory Concentration (MIC)
Protocol: as §1, §2, §3

[3] = system: C. pseudotropicalis (MY 2099); assay: microbroth dilution assay (MIC/MFC), C. pseudotropicalis (MY 2099); assay type: cell-based, Candida pseudotropicalis; conditions: Kluyveromyces marxianus, 24 h
Protocol: as §1, §4
as §4, with “Amphotericin, the control” for “The test”, “compound,” for “compound, Compound I,”, “512” for “128”, “10% DMSO” for “20% methanol”, “128” for “32”, “0.6” for “0.15”
as §5, §6

[4] = system: C. guillermondii (MY 1019); assay: microbroth dilution assay (MIC/MFC), C. guillermondii (MY 1019); assay type: cell-based; conditions: 24 h
Protocol: as §1, §4
as §4, with “Amphotericin, the control” for “The test”, “compound,” for “compound, Compound I,”, “512” for “128”, “10% DMSO” for “20% methanol”, “128” for “32”, “0.6” for “0.15”
as §5, §6

[5] = system: Candida albicans (MY 1055); assay: microbroth dilution assay (MIC/MFC), Candida albicans (MY 1055); assay type: cell-based; conditions: Candida albicans, 24 h
Protocol: as §1, §4
as §4, with “Amphotericin, the control” for “The test”, “compound,” for “compound, Compound I,”, “512” for “128”, “10% DMSO” for “20% methanol”, “128” for “32”, “0.6” for “0.15”
as §5, §6

C. glabrata (MY1381) = assay: microbroth dilution assay (MIC/MFC), C. glabrata (MY1381); assay type: cell-based; conditions: Nakaseomyces glabratus, 24 h
Protocol: as §1, §4
as §4, with “Amphotericin, the control” for “The test”, “compound,” for “compound, Compound I,”, “512” for “128”, “10% DMSO” for “20% methanol”, “128” for “32”, “0.6” for “0.15”
as §5, §6

S. cerevisiae (MY 2141) = assay: microbroth dilution assay (MIC/MFC), S. cerevisiae (MY 2141); assay type: cell-based; conditions: Saccharomyces cerevisiae
Protocol: as §1, §2, §3

[6] = system: Saccharomyces cerevisiae (MY 2140); assay: microbroth dilution assay (MIC/MFC), Saccharomyces cerevisiae (MY 2140); assay type: cell-based; conditions: Saccharomyces cerevisiae, 24 h
Protocol: as §1, §4
as §4, with “Amphotericin, the control” for “The test”, “compound,” for “compound, Compound I,”, “512” for “128”, “10% DMSO” for “20% methanol”, “128” for “32”, “0.6” for “0.15”
as §5, §6

C. topicalis (MY1012) = assay: microbroth dilution assay (MIC/MFC), C. topicalis (MY1012); assay type: cell-based; conditions: 24 h
Protocol: as §1, §4
as §4, with “Amphotericin, the control” for “The test”, “compound,” for “compound, Compound I,”, “512” for “128”, “10% DMSO” for “20% methanol”, “128” for “32”, “0.6” for “0.15”
as §5, §6

C. albicans (CLY539) = assay: microbroth dilution assay (MIC/MFC), C. albicans (CLY539); assay type: cell-based; conditions: Candida albicans, 24 h
Protocol: as §1, §4
as §4, with “Amphotericin, the control” for “The test”, “compound,” for “compound, Compound I,”, “512” for “128”, “10% DMSO” for “20% methanol”, “128” for “32”, “0.6” for “0.15”
as §5, §6

C. tropicalis (MY1124) = assay: microbroth dilution assay (MIC/MFC), C. tropicalis (MY1124); assay type: cell-based; conditions: Candida tropicalis, 24 h
Protocol: as §1, §4
as §4, with “Amphotericin, the control” for “The test”, “compound,” for “compound, Compound I,”, “512” for “128”, “10% DMSO” for “20% methanol”, “128” for “32”, “0.6” for “0.15”
as §5, §6

C. albicans (CA2) = assay: microbroth dilution assay (MIC/MFC), C. albicans (CA2); assay type: cell-based; conditions: Candida albicans, 24 h
Protocol: as §1, §4
as §4, with “Amphotericin, the control” for “The test”, “compound,” for “compound, Compound I,”, “512” for “128”, “10% DMSO” for “20% methanol”, “128” for “32”, “0.6” for “0.15”
as §5, §6

[7] = system: Cryptococcus neoformans (MY 2062); assay: microbroth dilution assay (MIC), Cryptococcus neoformans (MY 2062); assay type: cell-based; conditions: Cryptococcus neoformans, 24 h, read-out: Minimum Inhibitory Concentration (MIC)
Protocol: as §1, §2, §3

[8] = read-out: Minimum Fungicidal Concentration (MFC)
[9] = read-out: Minimum Inhibitory Concentration (MIC)

C[C@@H]1[C@H](O)[C@@H](C)/C=C/C=C/C=C/C=C/C=C/C=C/C=C/[C@H](O[C@@H]2O[C@H](C)[C@@H](O)[C@H](N)[C@@H]2O)C[C@@H]2O[C@](O)(C[C@@H](O)C[C@@H](O)[C@H](O)CC[C@@H](O)C[C@@H](O)CC(=O)O[C@H]1C)C[C@H](O)[C@H]2C(=O)O [Amphotericin B] was tested, and the MIC [1] was 2 µg/mL (≈ 2.16 µM), the MFC [2, 8] was 1 µg/mL (≈ 1.08 µM) and the MIC [2, 9] was 1 µg/mL (≈ 1.08 µM). For the same molecule, the MIC (A. fumigatus (5668)) was 2 µg/mL (≈ 2.16 µM), the MFC [3, 8] was 2 µg/mL (≈ 2.16 µM) and the MIC [3, 9] was 2 µg/mL (≈ 2.16 µM). For the same molecule, the MFC [4, 8] was 2 µg/mL (≈ 2.16 µM), the MIC [4, 9] was 1 µg/mL (≈ 1.08 µM) and the MFC [5, 8] was 1 µg/mL (≈ 1.08 µM). For the same molecule, the MIC [5, 9] was 1 µg/mL (≈ 1.08 µM), the MFC (C. glabrata (MY1381); [8]) was 2 µg/mL (≈ 2.16 µM) and the MIC (C. glabrata (MY1381); [9]) was 2 µg/mL (≈ 2.16 µM). The MIC (S. cerevisiae (MY 2141); 24 h, 35°-37° C., read-out: Minimum Inhibitory Concentration (MIC)) was 1 µg/mL (≈ 1.08 µM), the MFC (S. cerevisiae (MY 2141); no growth or ≤4 colonies on SDA after 24 h, read-out: Minimum Fungicidal Concentration (MFC)) was 1 µg/mL (≈ 1.08 µM) and the MFC [6, 8] was 1 µg/mL (≈ 1.08 µM). For the same molecule, the MIC [6, 9] was 1 µg/mL (≈ 1.08 µM), the MFC (C. topicalis (MY1012); [8]) was 16 µg/mL (≈ 17.3 µM) and the MIC (C. topicalis (MY1012); [9]) was 16 µg/mL (≈ 17.3 µM). The MFC (C. albicans (CLY539); [8]) was 2 µg/mL (≈ 2.16 µM), the MIC (C. albicans (CLY539); [9]) was 1 µg/mL (≈ 1.08 µM) and the MFC (C. tropicalis (MY1124); [8]) was 2 µg/mL (≈ 2.16 µM). For the same molecule, the MIC (C. tropicalis (MY1124); [9]) was 2 µg/mL (≈ 2.16 µM), the MFC (C. albicans (CA2); [8]) was 1 µg/mL (≈ 1.08 µM) and the MIC (C. albicans (CA2); [9]) was 1 µg/mL (≈ 1.08 µM). The MIC [7] was 1 µg/mL (≈ 1.08 µM).
